{
  "source": "patent US20200323828A1",
  "about": "“METHODS OF TREATING BEHAVIOR ALTERATIONS” (Oryzon Genomics, S.A., priority 2017, published 2020)",
  "type_in_all_cases": "in vivo",
  "key": {"[1]": {"system": "isolated Sprague-Dawley male rats", "assay": "Elevated plus maze (EPM) test in the rat isolation rearing model", "details": "0.16 or 0.48 mg/kg/day in drinking water", "protocol": "(§1) Right after the weaning (post natal day 21-23), 48 Sprague-Dawley male rats were divided in two groups: Control (Non Isolated; n=12), maintained 3-4 animals per cage; Isolated (n=36), 1 animal per cage. Starting on postnatal day (PND) 61, adult isolated male rats were treated with vehicle, Compound 1 at 0.16 mg/kg/day or Compound 1 at 0.48 mg/kg/day (n=12/group) for 5 weeks. Control (non-isolated) animals were treated with vehicle. The administration route was drinking water and the vehicle 1.8% 2-hydroxypropyl-β-cyclodextrin. Drug concentration was adjusted weekly by body weight and water consumption. During the last week of treatment, all animals were tested in the RI (PND94) to evaluate social behavior and, on a different day, in the EPM test (PND87-88) to evaluate anxiety behavior.\nThe elevated plus maze (EPM) test was perfomed following a similar protocol to that described for mice in Example 3 above, as follows: The EPM consisted of four arms at right angles to each other connected to a central square and maintained elevated 50 cm above the floor. Two of the opposite arms had high walls (enclosed arms, 46.5×12×42 cm), whereas the other two were open arms (46.5×12×0.3 cm). The animal was placed facing a closed arm, and its movements were video-recorded for 5 min and analyzed by video-tracking using SMART® (v2.5.21, PanLab, SLU, Spain). […]"}, "[2]": {"system": "male SAMP8 mice", "assay": "Open field (OF) test in male SAMP8 mice", "details": "0.32 or 0.96 mg/kg/day in drinking water", "protocol": "(§2) Animals (n=8/group) were treated from month 5 of age with vehicle, 0.32 or 0.96 mg/kg/day Compound 1, and by month 7 of treatment they were sequentially submitted to the OF and EPM test at one week intervals.\n(§3) Vehicle (1.8% 2-Hydroxypropyl-(3-cyclodextrin, Sigma-Aldrich, Spain) or KDM1A inhibitor (Compound 1) were administered in drinking water. SAMR1 mice treated with vehicle were included as a control (n=8). All drugs were administered via drinking water and diluted in vehicle. Drug concentration was calculated weekly in function of body weight and corrected in function of drinking water consumption.\nOpen Field (OF): A 50×50-cm white plastic arena with 25-cm-high walls was used to analyze spontaneous exploratory behavior. The floor of the apparatus was divided into 25 equal squares. The movements of each animal were video recorded during 5 min. Locomotor activity was analyzed by video-tracking over the captured images using SMART® (v3.0, PanLab, SLU, Spain).\n(§4) Statistical analysis: SAMR1 and SAMP8 vehicle groups were compared by t-Test. Among the SAMP8 groups, different treatments were compared by oneway-ANOVA with Dunnet and SNK post-Hoc analysis."}, "[3]": {"system": "isolated Sprague-Dawley male rats", "assay": "Resident-intruder (RI) test in the rat isolation rearing model (social withdrawal)", "excerpt": "In this model, rats are isolated after weaning on postnatal day 21 (PND21) and deprived of the normal environment that preconditions their social behavior. Isolation in this phase of the development of the rat may lead to behavior alterations, particularly a lack of interest for social interactions, which can be used as a model for human social withdrawal.\nas §1\nThe resident-intruder (RI) test was performed following a similar protocol to that described for mice in Example 3 above, as follows: Briefly, the test subject (resident) was maintained in its home cage without bedding changes for one week. […] The session was video-recorded during 15 min, and social interaction (parameters measured: active and passive social interaction, avoidance and time without social interaction) and aggressive behavior of the test subject were analyzed by an experimenter blind to the treatment.\nStatistical analysis: Non Isolated and Isolated vehicle groups were compared by t-Test. Among the Isolated groups, different drug treatments were compared by oneway-ANOVA with Dunnet and SNK post-Hoc analysis."}, "[4]": {"system": "male SAMP8 mice", "assay": "Resident-intruder (RI) test in male SAMP8 mice (aggressive behavior)", "protocol": "In this study, male SAMP8 animals were treated either with vehicle (n=5), 0.32 (n=8) or 0.96 (n=8) mg/kg/day of Compound 1 for 5 weeks from month 5 of age and then subjected to the RI test. Vehicle (1.8% 2-Hydroxypropyl-β-cyclodextrin, Sigma-Aldrich, Spain) or Compound 1 were administered in drinking water. SAMR1 mice treated with vehicle were included as a control (n=6). All drugs were administered via drinking water and diluted in vehicle. Drug concentration was calculated weekly in function of body weight and corrected in function of drinking water consumption.\nThe resident-intruder (RI) test was performed as follows: the test subject (resident) was maintained in its home cage without bedding changes for one week. […] The session (20 min) was video-recorded and social interaction (parameters tested: social interaction and rearings) and aggressive behavior (parameters tested: lateral threats, clinch attacks, keep-down behavior, and total attacks as the sum of all three aggressive behavior parameters measured) of the test subject were analyzed by an experimenter blind to the treatment.\nas §4"}, "[5]": {"system": "male SAMP8 mice", "assay": "Elevated plus maze (EPM) test in male SAMP8 mice", "protocol": "as §2, §3\nElevated Plus Maze (EPM): The EPM consisted of four arms at right angles to each other connected to a central square and maintained elevated 50 cm above the floor. Two of the opposite arms had high walls (enclosed arms, 30×5×15 cm), whereas the other two were open arms (30×5×0 cm). The animal was placed facing a closed arm, and its movements were video-recorded for 5 min and analyzed by video-tracking using SMART® (v3.0, PanLab, SLU, Spain).\nas §4"}, "[6]": {"system": "female SAMP8 mice", "assay": "Three chamber test (TCT) in female SAMP8 mice", "details": "0.96 mg/kg/day in drinking water for 4 months", "excerpt": "In this test, after adaptation to the thee-chamber arena, a mouse is released into the middle chamber and allowed to explore the other compartments. In the adjacent ‘mouse’ compartment a docile stimulus mouse is situated in a mesh-wire container, while in the other adjacent compartment a similar container is located without stimulus mouse (object compartment). The propensity to approach or avoid the compartment with the stimulus mouse provides a measure of social interaction behavior/sociability. Wild type mice prefer social interaction and spend more time in the mouse compartment in comparison to the object compartment.\nIn this study, 8-month old female SAMP8 mice were treated either with vehicle (n=9) or 0.96 mg/kg/day of Compound 1 (n=12) for 4 months and then subjected to the TCT. […] Drug concentration was calculated weekly in function of body weight and corrected in function of drinking water consumption.\nThe TCT was performed in a Plexiglas transparent box with three identical consecutive chambers (15×15×20 cm) with two identical small metallic cages placed in both lateral chambers. […] This habituation time was monitored to avoid animals showing preference for one of the chambers. […] The time spent in each chamber and the time of direct exploration of the novel mice was measured during a total observation time of 10 minutes. […]"}},
  "data": [
    {"smiles": "Nc1nnc(CN[C@@H]2C[C@H]2c2ccc(OCc3ccccc3)cc2)o1", "note": "[Compound 1, 5-((((1R,2S)-2-(4-(benzyloxy)phenyl)cyclopropyl)amino)methyl)-1,3,4-oxadiazol-2-amine]", "values": [
      {"measurement": "effect on anxiety or locomotor activity", "setting": "[1]", "result": "did not produce any significant effect"},
      {"measurement": "locomotor activity", "setting": "[2]", "result": "nor did treatment with Compound 1 significantly affect locomotor activity"},
      {"measurement": "number of evitations", "setting": "[3]; isolated rats, 0.16 or 0.48 mg/kg/day in drinking water for 5 weeks, vs non-isolated rats, FIG. 4", "result": "restored to normality"},
      {"measurement": "time without social interaction", "setting": "[3]; isolated rats, 0.16 or 0.48 mg/kg/day in drinking water for 5 weeks, FIG. 3", "result": "dose dependently reduced"},
      {"measurement": "tolerability of doses on long-term treatment", "setting": "[3]; rats, 0.16 or 0.48 mg/kg/day in drinking water", "result": "well-tolerated"},
      {"measurement": "number of total attacks", "setting": "[4]; male SAMP8 mice, 0.32 or 0.96 mg/kg/day in drinking water for 5 weeks, vs vehicle-treated SAMR1, FIG. 1", "result": "lowered the number of attacks in SAMP8 mice to SAMR1 levels"},
      {"measurement": "number of clinch attacks", "setting": "[4]; male SAMP8 mice, 0.32 or 0.96 mg/kg/day in drinking water for 5 weeks, vs vehicle-treated SAMR1, FIG. 2", "result": "lowered the number of attacks in SAMP8 mice to SAMR1 levels"},
      {"measurement": "tolerability of doses on long-term treatment", "setting": "[4]; mice, 0.32 or 0.96 mg/kg/day in drinking water", "result": "well-tolerated"},
      {"measurement": "anxiolytic or sedative activity", "setting": "[5]; conclusion from OF and EPM tests in SAMP8 mice", "result": "did not have anxiolytic or sedative activity"},
      {"measurement": "time in the open arms of the EPM", "setting": "[5]; male SAMP8 mice, 0.32 or 0.96 mg/kg/day in drinking water", "result": "not significantly modified"},
      {"measurement": "preference for the socialization chamber (mice chamber) over the Object chamber", "setting": "[6]; vs SAMR1, FIG. 5", "result": "restored"},
      {"measurement": "time spent exploring a novel mouse", "setting": "[6]; vs SAMR1, FIG. 6", "result": "restored"}
    ]}
  ]
}
